{
  "source": "patent US20180258381A1",
  "about": "“BIO-LAMINA BIOREACTORS AND METHODS OF MAKING AND USING THE SAME” (Oregon State University, priority 2015, published 2018)",
  "key": {"sMMO": {"target": "T1, sMMO (Methylosinus trichosporium, UniProt P27353)", "T1 construct": "endogenous in cells; host or cells: M. trichosporium OB3b whole cells, grown without copper (chemostat or batch)", "T1 sequence (P27353 1-526)": "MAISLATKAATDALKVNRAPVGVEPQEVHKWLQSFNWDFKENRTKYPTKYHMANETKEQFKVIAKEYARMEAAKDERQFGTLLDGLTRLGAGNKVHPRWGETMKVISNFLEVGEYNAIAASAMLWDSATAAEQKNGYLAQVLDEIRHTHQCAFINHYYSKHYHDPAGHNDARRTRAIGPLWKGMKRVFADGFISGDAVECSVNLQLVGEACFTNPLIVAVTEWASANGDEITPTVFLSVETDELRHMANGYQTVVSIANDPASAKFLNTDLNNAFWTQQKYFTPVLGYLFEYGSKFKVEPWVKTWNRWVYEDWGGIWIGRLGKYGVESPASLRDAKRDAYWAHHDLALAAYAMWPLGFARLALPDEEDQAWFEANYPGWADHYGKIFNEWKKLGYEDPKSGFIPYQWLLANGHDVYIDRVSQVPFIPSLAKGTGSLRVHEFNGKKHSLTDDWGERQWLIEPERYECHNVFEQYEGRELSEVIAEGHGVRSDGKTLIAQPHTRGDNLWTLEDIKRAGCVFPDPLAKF", "T1 sequence (P27354 1-394 partner)": "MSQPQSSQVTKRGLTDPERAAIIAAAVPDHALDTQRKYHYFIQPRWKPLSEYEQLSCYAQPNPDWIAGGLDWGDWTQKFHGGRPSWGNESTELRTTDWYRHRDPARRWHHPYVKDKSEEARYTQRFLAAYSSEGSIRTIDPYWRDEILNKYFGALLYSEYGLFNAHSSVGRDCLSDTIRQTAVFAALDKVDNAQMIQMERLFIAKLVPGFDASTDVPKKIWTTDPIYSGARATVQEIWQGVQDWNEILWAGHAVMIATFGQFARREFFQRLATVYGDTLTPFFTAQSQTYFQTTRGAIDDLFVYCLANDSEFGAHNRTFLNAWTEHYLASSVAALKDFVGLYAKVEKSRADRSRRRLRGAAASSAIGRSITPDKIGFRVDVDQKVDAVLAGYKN", "T1 sequence (P27355 1-169 partner)": "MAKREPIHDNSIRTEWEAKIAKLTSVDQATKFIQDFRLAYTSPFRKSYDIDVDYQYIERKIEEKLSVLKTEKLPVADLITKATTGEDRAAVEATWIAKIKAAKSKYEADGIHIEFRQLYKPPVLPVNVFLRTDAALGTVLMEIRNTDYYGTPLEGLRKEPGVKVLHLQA", "assay": "sMMO activity reactivity assay, inhibitor trials", "format": "cell-based, M. trichosporium OB3b", "description": "M. trichosporium OB3b cultures were grown under plus copper (pMMO expressed) or minus copper (sMMO expressed) conditions using chemostat or batch culture conditions. Aliquots of culture (˜100 ml) were harvested by centrifugation, and concentrated 50-fold in fresh media. Pelleting cells in this manner ensured that all residual methane was eliminated, increased ease of measuring protein, and made activity assays as brief as possible. Assays were performed in 30 ml crimp cap reaction vials with 4 ml of media (either +Cu or −Cu) with 10 mM sodium formate. To initiate assays, 100 µl of the 50× cell suspension was added to reaction vials with a plastic syringe. Short descriptions of activity assays follow.\nDue to the relative insolubility of methane, large volumes should be added to reaction vials to achieve concentrations in the aqueous phase (Cw) above the concentration of methane where the velocity of methane consumption (V) is equal to 0.5Vmax for minus copper grown M. trichosporium OB3b cultures. These large methane additions make direct measurement of methane consumption in short-term assays unlikely, therefore the accumulation of ethylene oxide (ETO) upon the oxidation of ethylene (ETH) was used as a surrogate measurement. Reaction vials were prepared as described above and 5 ml of ETH added as an overpressure. The appearance of ETO was monitored by gas chromatography evaluation of Cw over the course of 30 minutes (FIG. 39A). Killed cells (boiled) served as a negative control. pMMO is a copper enzyme and can be inhibited by allylthiourea (ATU), while sMMO (an iron enzyme) is insensitive to inhibition by ATU. The ETH to ETO assay described above was repeated with 10 μM ATU to discriminate between sMMO and pMMO activity.\n(§1) Metabolic activity test methods have been developed to monitor specific activities in M. trichosporium OB3b cultures. A naphthalene oxidation assay was used to determine if sMMO is being expressed. An ethylene to ethylene oxide reaction assay and a methane oxidation assay was used to quantify MMO activity, and a methanol oxidation assay was used to estimate MDH activity. Concurrent batch metabolic tests can be conducted to investigate methanol inhibition of methane oxidation, cyclopropane to cyclopropanol conversion and concurrent/subsequent cyclopropanol inhibition of MDH activity, the effect of cyclopropanol inhibition on growth yield, and the effects of high oxygen concentration. Once stable operation and baseline metabolic monitoring in the chemostat have been achieved, inhibitor can be added to evaluate chemostat operation under methanol-producing conditions.\nMMO activity has been measured via both methane (CH4) consumption and ethylene oxide (ETO) production upon oxidation of the non-growth substrate ethylene (ETH, Table 4). While ETO production matches methane consumption for pMMO, ETH is not as good a substrate for sMMO as methane. Nevertheless, the ETO accumulation assay is quick (<30 min) and can be used to screen for activity before starting a larger experiment.\n(§2) The effect of salts NaCl, NH4Cl and CaCl2 on MMO and MDH activity was evaluated using the reactivity assays described above."}, "MDH": {"system": "MDH", "assay": "MDH activity reactivity assay (methanol SOUR), inhibitor trials", "format": "cell-based, M. trichosporium OB3b", "settings": "for selective inhibition of MDH activity versus MMO: salts tested on MMO and MDH activity", "description": "The procedure for measuring methanol dehydrogenase (MDH) activity by measuring the specific oxygen uptake rate (SOUR) has been tested on M. trichosporium OB3b cultures grown both in batch and in the chemostat. M. trichosporium OB3b cells were harvested using centrifugation. The supernatant was poured off and the cells were re-suspended in fresh media lacking a carbon source. Phosphate buffer solution was added to a sample chamber in which dissolved oxygen (DO) was measure with a DO probe. When the DO of the solution stabilized, the re-suspended cells were added to the sample chamber to measure baseline oxygen uptake by the cells without a carbon food source present. Methanol was then added to test for MDH activity. The difference in the oxygen uptake rates illustrates the MDH activity of the culture.\nas §1, with “concentration.” for “concentration. Once stable operation and baseline metabolic monitoring in the chemostat have been achieved, inhibitor can be added to evaluate chemostat operation under methanol-producing conditions.”\nas §2"}},
  "data": [
    {"smiles": "[Ca+2].[Cl-].[Cl-]", "note": "[CaCl2]", "values": [
      {"measurement": "Fraction of Activity Remaining, sMMO", "setting": "sMMO; CaCl2 10 mmol", "result": 0.41},
      {"measurement": "Fraction of Activity Remaining, sMMO", "setting": "sMMO; CaCl2 20 mmol", "result": 0.29},
      {"measurement": "Fraction of Activity Remaining, sMMO", "setting": "sMMO; CaCl2 40 mmol", "result": 0.20},
      {"measurement": "Fraction of Activity Remaining, MDH", "setting": "MDH; CaCl2 10 mmol", "result": 0.71},
      {"measurement": "Fraction of Activity Remaining, MDH", "setting": "MDH; CaCl2 40 mmol", "result": 0.45},
      {"measurement": "Fraction of Activity Remaining, MDH", "setting": "MDH; CaCl2 66 mmol", "result": 0.35},
      {"measurement": "selective inhibition of MDH activity versus MMO", "setting": "MDH", "result": "None of the salts were effective"}
    ]},
    {"smiles": "Cl.N", "note": "[NH4Cl]", "values": [
      {"measurement": "selective inhibition of MDH activity versus MMO", "setting": "MDH", "result": "None of the salts were effective"}
    ]},
    {"smiles": "[Cl-].[Na+]", "note": "[NaCl]", "values": [
      {"measurement": "selective inhibition of MDH activity versus MMO", "setting": "MDH", "result": "None of the salts were effective"}
    ]}
  ]
}
